In patent US12667572B2, “Tricyclic compounds useful in the treatment of cancer, autoimmune and inflammatory disorders” (SCHRÖDINGER, INC., priority 2021, dated 2026):

Key:
[1] = tested on: IL10 secretion in OCI-LY10 cells; assay: Human IL10 secretion assay, Assay 2 (MSD); format: cell-based; settings: Homo sapiens, 24 h incubation, Meso Scale Discovery, read-out: IL-10 Secretion IC50 [nM] Assay 2
Description: IL10 is one of the cytokines that are regulated via activation of NF-kB signaling. For example, in ABC-DLBCL cell lines, the activated NF-kB signaling leads to increased IL10 secretion. Inhibition of NF-kB signaling has been shown leading to decreased IL10 secretion.
Assay 2: OCI-LY10 cells were seeded in IMEM supplemented with 20% fetal bovine serum at 4.8×10^5 cells per 160 μL per well in 96-well V-bottom cell culture plates (corning, 3894), treated with 120 nL of 3-fold serial compound dilutions, starting at 4 mM. The final vehicle concentration was 0.075% DMSO in all wells. After a 24 h incubation, human IL-10 precoated plates (Meso Scale Discovery) were washed 3 times with PBST, and 50 μL culture medium was aspirated into the MSD plate and incubated at 4° C. overnight. The supernatant was then discarded, and the wells were washed 3 times with PB ST. SULFO-TAG Anti-human IL-10 Antibody (50×) was diluted 50-fold according to the Meso Scale Protocol, then 25 μL of SULFO-TAG Anti-human IL-10 Antibody (1×) was added. After 2 h of incubation at RT, the supernatant was discarded, and the well was washed 3 times with PBST. 2×read buffer was added and the signal was read on an MSD Sector S600. The effect of a particular compound on IL10 secretion is shown relative to the effect of DMSO; set as 100%. IC50 values (nM) were determined using 4-parametric curve-fitting.

[2] = target: T1, full-length MALT1 protein His-MALT1(1-824) (Homo sapiens, UniProt Q9UDY8); assay: MALT1 protease assay, Assay 2 (1 nM MALT1, Ac-LRSR-AMC substrate); format: biochemical; settings: 1 nM MALT1, 50 μM Ac-LRSR-AMC, 2 h pre-incubation, 8 hr incubation at RT
T1 construct: full-length MALT1 protein His-MALT1(1-824); His (N); made in house; host or cells: baculovirus-infected insect cells
T1 sequence (Q9UDY8 1-824): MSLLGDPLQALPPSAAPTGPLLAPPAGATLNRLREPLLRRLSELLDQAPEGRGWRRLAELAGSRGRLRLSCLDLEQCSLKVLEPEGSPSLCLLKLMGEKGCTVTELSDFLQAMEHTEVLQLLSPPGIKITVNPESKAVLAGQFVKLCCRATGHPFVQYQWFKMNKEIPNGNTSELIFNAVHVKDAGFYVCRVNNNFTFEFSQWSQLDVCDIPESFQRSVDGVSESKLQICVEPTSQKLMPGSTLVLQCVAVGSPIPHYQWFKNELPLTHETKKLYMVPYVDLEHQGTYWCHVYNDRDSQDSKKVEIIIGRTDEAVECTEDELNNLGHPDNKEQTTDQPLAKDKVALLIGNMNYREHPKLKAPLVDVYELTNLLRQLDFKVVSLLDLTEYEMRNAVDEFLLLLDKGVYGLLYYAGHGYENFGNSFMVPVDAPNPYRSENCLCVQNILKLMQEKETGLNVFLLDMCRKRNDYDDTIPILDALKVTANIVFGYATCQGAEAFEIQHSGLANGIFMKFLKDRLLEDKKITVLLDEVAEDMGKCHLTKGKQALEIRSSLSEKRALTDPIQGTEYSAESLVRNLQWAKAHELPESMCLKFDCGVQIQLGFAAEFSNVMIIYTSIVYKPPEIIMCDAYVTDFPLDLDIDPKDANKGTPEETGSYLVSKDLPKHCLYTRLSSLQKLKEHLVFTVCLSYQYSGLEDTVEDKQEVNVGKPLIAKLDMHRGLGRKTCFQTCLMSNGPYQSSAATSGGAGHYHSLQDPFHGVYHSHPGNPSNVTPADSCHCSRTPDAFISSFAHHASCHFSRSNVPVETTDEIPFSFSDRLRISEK
Procedure, shortened: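 Compounds (0.1% DMSO final) sat 2 h at RT with insect-cell-expressed His-MALT1(1-824), in 50 mM Tris pH 7.5, 600 mM sodium citrate, 1 mM DTT, 1 mM EDTA, 0.05% BSA. Cleavage of 50 μM Ac-LRSR-AMC (Km ~100 μM) ran 8 h at RT, read as AMC fluorescence. IC50 and Hill coefficient fitted to % remaining activity.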

Compound	IC50 [1]	IC50 [2]
CN(C(=O)c1ncc(NC(=O)[C@H]2CC(C)(C)c3c2cnc2cc(Cl)nn32)cc1C(F)F)C1CC1 (single isomer, unassigned) [Example 73, 2-chloro-N-(6-(cyclopropyl(methyl)carbamoyl)-5-(difluoromethyl)pyridin-3-yl)-8,8-dimethyl-7,8-dihydro-6H-cyclopenta[e]pyrazolo[1,5-a]pyrimidine-6-carboxamide]	10 to 100 nM	< 10 nM
CC1(C)C[C@H](C(=O)Nc2cnc(OC(F)F)c(Cl)c2)c2cnc3cc(F)nn3c21 (single isomer, unassigned) [Example 77, N-(5-chloro-6-(difluoromethoxy)pyridin-3-yl)-2-fluoro-8,8-dimethyl-7,8-dihydro-6H-cyclopenta[e]pyrazolo[1,5-a]pyrimidine-6-carboxamide]	10 to 100 nM	< 10 nM
CC1(C)CC(C(=O)Nc2cnc(OC(F)F)c(C#N)c2)c2cnc3cc(F)nn3c21 (single isomer, unassigned) [Example 84, N-(5-cyano-6-(difluoromethoxy)pyridin-3-yl)-2-fluoro-8,8-dimethyl-7,8-dihydro-6H-cyclopenta[e]pyrazolo[1,5-a]pyrimidine-6-carboxamide]	10 to 100 nM	< 10 nM
O=C(Nc1cnc(-n2nccn2)c(Cl)c1)C1CC2(CC2)c2c1cnc1cc(Cl)nn21 (single isomer, unassigned) [Example 97, 2-chloro-N-(5-chloro-6-(2H-1,2,3-triazol-2-yl)pyridin-3-yl)-6,7-dihydrospiro[cyclopenta[e]pyrazolo[1,5-a]pyrimidine-8,1′-cyclopropane]-6-carboxamide]	100 to 1000 nM	10 to 100 nM
Cc1cc2cc(F)c3c(n2n1)C(C)(C)CC3C(=O)Nc1cnc(-n2nccn2)c(Cl)c1 (single isomer, unassigned) [Example 157, N-(5-chloro-6-(2H-1,2,3-triazol-2-yl)pyridin-3-yl)-5-fluoro-2,8,8-trimethyl-7,8-dihydro-6H-cyclopenta[e]pyrazolo[1,5-a]pyridine-6-carboxamide]	≥ 1000 nM	10 to 100 nM
CC1(C)CC(C(=O)Nc2cnc(OC3CC3)c(C#N)c2)c2cnc3cc(F)nn3c21 (single isomer, unassigned) [Example 81, N-(5-cyano-6-cyclopropoxypyridin-3-yl)-2-fluoro-8,8-dimethyl-7,8-dihydro-6H-cyclopenta[e]pyrazolo[1,5-a]pyrimidine-6-carboxamide]	100 to 1000 nM	10 to 100 nM
C[C@]1(C(F)(F)F)C[C@H](C(=O)Nc2cnc(-n3nccn3)c(C(F)F)c2)c2cnc3cc(Cl)nn3c21 (single isomer, unassigned) [Example 66, 2-chloro-N-(5-(difluoromethyl)-6-(2H-1,2,3-triazol-2-yl)pyridin-3-yl)-8-methyl-8-(trifluoromethyl)-7,8-dihydro-6H-cyclopenta[e]pyrazolo[1,5-a]pyrimidine-6-carboxamide]	100 to 1000 nM	10 to 100 nM
CC1(C)CC(C(=O)Nc2cc(N=S(C)(C)=O)nc(C(F)(F)F)c2)c2cnc3cc(F)nn3c21 (single isomer, unassigned) [Example 128, N-(2-((dimethyl(oxo)-λ^6-sulfaneylidene)amino)-6-(trifluoromethyl)pyridin-4-yl)-2-fluoro-8,8-dimethyl-7,8-dihydro-6H-cyclopenta[e]pyrazolo[1,5-a]pyrimidine-6-carboxamide]	100 to 1000 nM	10 to 100 nM
C[C@H](O)c1cnn(-c2ncc(NC(=O)[C@H]3CC(C)(C)c4c3cnc3cc(Cl)nn43)cc2Cl)n1 (single isomer, unassigned) [Example 49, 2-chloro-N-(5-chloro-6-(4-(1-hydroxyethyl)-2H-1,2,3-triazol-2-yl)pyridin-3-yl)-8,8-dimethyl-7,8-dihydro-6H-cyclopenta[e]pyrazolo[1,5-a]pyrimidine-6-carboxamide]	100 to 1000 nM	< 10 nM
C[C@@H](O)c1cnn(-c2ncc(NC(=O)[C@H]3CC4(CCC4)c4c3cnc3cc(Cl)nn43)cc2Cl)n1 (single isomer, unassigned) [Example 160]	10 to 100 nM	< 10 nM
CC1(C)CC(C(=O)Nc2cnc(-c3nnn(CCO)n3)c(Cl)c2)c2cnc3cc(Cl)nn3c21 (stereo not drawn) [Example 123, 2-chloro-N-(5-chloro-6-(2-(2-hydroxyethyl)-2H-tetrazol-5-yl)pyridin-3-yl)-8,8-dimethyl-7,8-dihydro-6H-cyclopenta[e]pyrazolo[1,5-a]pyrimidine-6-carboxamide]	≥ 1000 nM	10 to 100 nM
C[C@H](O)c1cnn(-c2ncc(NC(=O)[C@H]3CC4(CCC4)c4c3cnc3cc(Cl)nn43)cc2Cl)n1 (single isomer, unassigned) [Example 158]	100 to 1000 nM	10 to 100 nM
C[C@@]1(C(F)(F)F)C[C@H](C(=O)Nc2cnc(-n3nccn3)c(C(F)(F)F)c2)c2cnc3cc(Cl)nn3c21 (single isomer, unassigned) [Example 54, N-(6-(2H-1,2,3-triazol-2-yl)-5˜(trifluoromethyl)pyridin-3-yl)-2-chloro-8-methyl-8-(trifluoromethyl)-7,8-dihydro-6H-cyclopenta[e]pyrazolo[1,5-a]pyrimidine-6-carboxamide]	100 to 1000 nM	< 10 nM
CC1(C)CC(C(=O)Nc2cnc(-n3nccn3)c(Cl)c2)c2cnn3cc(Cl)nc3c21 (single isomer, unassigned) [Example 195, 2-chloro-N-(5-chloro-6-(2H-1,2,3-triazol-2-yl)pyridin-3-yl)-9,9-dimethyl-8,9-dihydro-7H-cyclopenta[d]imidazo[1,2-b]pyridazine-7-carboxamide]	10 to 100 nM	< 10 nM
CC1(C)CC(C(=O)Nc2cnc(-n3nccn3)c(C(F)(F)F)c2)c2cnc3cc(F)nn3c21 (single isomer, unassigned) [Example 151, N-(6-(2H-1,2,3-triazol-2-yl)-5-(trifluoromethyl)pyridin-3-yl)-2-fluoro-8,8-dimethyl-7,8-dihydro-6H-cyclopenta[e]pyrazolo[1,5-a]pyrimidine-6-carboxamide]	10 to 100 nM	< 10 nM
CC1(C)CC(C(=O)Nc2cnc(-n3nccn3)c(C(F)F)c2)c2cnc3cc(Cl)nn3c21 (single isomer, unassigned) [Example 47, 2-chloro-N-(5-(difluoromethyl)-6-(2H-1,2,3-triazol-2-yl)pyridin-3-yl)-8,8-dimethyl-7,8-dihydro-6H-cyclopenta[e]pyrazolo[1,5-a]pyrimidine-6-carboxamide]	100 to 1000 nM	< 10 nM
CC1(C)CC(C(=O)Nc2cnc(-n3nccn3)c(Cl)c2)c2cnc3c(F)cnn3c21 (single isomer, unassigned) [Example 101, N-(5-chloro-6-(2H-1,2,3-triazol-2-yl)pyridin-3-yl)-3-fluoro-8,8-dimethyl-7,8-dihydro-6H-cyclopenta[e]pyrazolo[1,5-a]pyrimidine-6-carboxamide]	100 to 1000 nM	10 to 100 nM
CC1(C)CC(C(=O)Nc2cnc(-n3nccn3)c(C#N)c2)c2cnc3cc(F)nn3c21 (single isomer, unassigned) [Example 89, N-(5-cyano-6-(2H-1,2,3-triazol-2-yl)pyridin-3-yl)-2-fluoro-8,8-dimethyl-7,8-dihydro-6H-cyclopenta[e]pyrazolo[1,5-a]pyrimidine-6-carboxamide]	100 to 1000 nM	< 10 nM
